Data on three molecules can be found in patent publication US8877744B2, “1,4-Oxazepines as BACE1 and/or BACE2 inhibitors” (Hoffmann-La Roche Inc., priority 2011, dated 2014).

Assay [1] concerns the target T1, BACE1 (Homo sapiens, UniProt P56817).
T1 construct: endogenous in cells; host or cells: HEK293 stably transfected with human APP695 wt
Briefly: Cellular Aβ-lowering assay a): HEK293 cells expressing human APP695, Aβ40 ELISA. It is filed as cell-based. Particulars: Aβ40 in supernatant by ELISA, 18-20 hrs incubation. The method, then: Cellular Aβ-Lowering Assay:
a) Human HEK293 cells which are stably transfected with a vector expressing a cDNA of the human APP wt gene (APP695) were used to assess the potency of the compounds in a cellular assay. The cells were seeded in 96-well microtiter plates in cell culture medium (Iscove, plus 10% (v/v) fetal bovine serum, glutamine, penicillin/streptomycin) to about 80% confluence and the compounds were added at a 10× concentration in 1/10 volume of medium without FCS containing 8% DMSO (final concentration of DMSO was kept at 0.8% v/v). After 18-20 hrs incubation at 37° C. and 5% CO2 in a humidified incubator the culture supernatant was harvested for the determination of Aβ40 concentrations. 96 well ELISA plates (e.g., Nunc MaxiSorb) were coated with monoclonal antibody which specifically recognize the C-terminal end of Aβ40 (Brockhaus et al., NeuroReport 9, 1481-1486; 1998). After blocking of non-specific binding sites with e.g. 1% BSA and washing, the culture supernatants were added in suitable dilutions together with a horseradish peroxidase-coupled Aβ detection antibody (e.g., antibody 4G8, Senetek, Maryland Heights, Mo.) and incubated for 5 to 7 hrs. Subsequently the wells of the microtiter plate were washed extensively with Tris-buffered saline containing 0.05% Tween 20 and the assay was developed with tetramethylbenzidine/H2O2 in citric acid buffer. After stopping the reaction with one volume 1 N H2SO4 the reaction was measured in an ELISA reader at 450 nm wavelength. The concentrations of Aβ in the culture supernatants were calculated from a standard curve obtained with known amounts of pure Aβ peptide.
For orientation: In an ELISA, binding on a coated surface is turned into a signal by an enzyme label.

In assay [2] the target is T2, endogenous cellular BACE2 (Rattus norvegicus, UniProt Q6IE75).
T2 construct: endogenous in cells; host or cells: INS-TMEM27 (INS1e-derived rat cell line with inducible full-length hTMEM27)
T2 sequence (Q6IE75 63-514): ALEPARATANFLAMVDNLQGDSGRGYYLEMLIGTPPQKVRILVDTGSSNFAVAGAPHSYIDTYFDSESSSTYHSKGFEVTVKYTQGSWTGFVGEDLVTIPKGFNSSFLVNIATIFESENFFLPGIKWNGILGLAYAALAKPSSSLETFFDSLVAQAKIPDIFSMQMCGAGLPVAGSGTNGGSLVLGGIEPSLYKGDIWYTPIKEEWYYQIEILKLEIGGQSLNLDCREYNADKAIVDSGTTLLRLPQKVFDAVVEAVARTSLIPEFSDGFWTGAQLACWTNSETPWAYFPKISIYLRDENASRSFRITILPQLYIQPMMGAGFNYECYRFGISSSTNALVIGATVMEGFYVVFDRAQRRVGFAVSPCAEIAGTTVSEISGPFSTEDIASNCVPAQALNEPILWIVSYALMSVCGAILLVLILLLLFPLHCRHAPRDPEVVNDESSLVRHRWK
Briefly: Assay for BACE inhibition by measuring cellular TMEM27 cleavage (INS-TMEM27 cells, ELISA). It is filed as cell-based. The note with it: INS-TMEM27 (Ins1e rat) cells, shed human TMEM27 by ELISA. The text has this: Assay for BACE Inhibition by Measuring Cellular TMEM27 Cleavage:
The assay uses the principle of inhibition of human TMEM27 cleavage by endogenous cellular BACE2 in the Ins1e rat cell line and shedding from the cell surface into the culture medium, followed by detection in an ELISA assay Inhibition of BACE2 prevents the cleavage and shedding in a dose-dependent manner
The stable cell line “INS-TMEM27” represents an INS1e-derived cell line with inducible expression (using the TetOn system) of full-length hTMEM27 in a doxycycline-dependent manner. The cells are cultured throughout the experiment in RPMI1640+Glutamax (Invitrogen) Penicillin/Streptomycin, 10% Fetal bovine serum, […], […], 100 micrograms/ml G418 and 100 microgram/ml hygromycin and are grown inadherent culture at 37° C. in a standard CO2 cell culture incubator.
INS-TMEM27 cells are seeded in 96-well plates. After 2 days in culture, BACE2 inhibitor is added in a range of concentrations as required by the assay and after a further two hours, doxycycline is added to a final concentration of 500 ng/ml. The cells are incubated for a further 46 hours and the supernatant harvested for detection of shed TMEM27.
An ELISA assay (using a pair of mouse anti-human-TMEM27 antibodies, raised against the extracellular domain of TMEM27) is used for detection of TMEM27 in the culture medium. An EC50 for BACE2 inhibition is calculated using the ELISA readout for each inhibitor concentration with standard curve-fitting software such as XLFit for the Excel spreadsheet program.

Each structure is given as a SMILES string.

T1 sequence (P56817 46-501): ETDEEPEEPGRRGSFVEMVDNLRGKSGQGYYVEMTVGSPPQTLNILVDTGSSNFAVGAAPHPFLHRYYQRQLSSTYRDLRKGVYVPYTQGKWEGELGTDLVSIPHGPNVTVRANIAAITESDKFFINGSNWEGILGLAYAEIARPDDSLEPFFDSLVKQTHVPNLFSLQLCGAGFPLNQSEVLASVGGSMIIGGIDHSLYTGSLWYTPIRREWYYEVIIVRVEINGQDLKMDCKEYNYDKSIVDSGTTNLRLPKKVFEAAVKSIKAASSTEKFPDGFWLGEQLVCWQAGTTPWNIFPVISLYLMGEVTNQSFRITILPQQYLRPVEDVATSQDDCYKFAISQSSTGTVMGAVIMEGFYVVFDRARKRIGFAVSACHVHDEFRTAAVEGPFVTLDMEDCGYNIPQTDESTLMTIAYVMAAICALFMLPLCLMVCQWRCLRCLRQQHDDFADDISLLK

As for `CC1(C)OCC(N)=N[C@](C)(c2cc(-c3cncc(Cl)c3)ccc2F)C1(F)F` [Example 4, (R)-5-[5-(5-Chloro-pyridin-3-yl)-2-fluoro-phenyl]-6,6-difluoro-5,7,7-trimethyl-2,5,6,7-tetrahydro-[1,4]oxazepin-3-ylamine], the IC50 (as a rule, the midpoint of a concentration-inhibition curve) stood at 0.205 µM in assay [1] and 0.592 µM in assay [2].

For the molecule `CC1(C)OCC(N)=N[C@](C)(c2cc(-c3cc(Cl)cc(Cl)c3)ccc2F)C1(F)F` [Example 10, (R)-5-(3′,5′-Dichloro-4-fluoro-biphenyl-3-yl)-6,6-difluoro-5,7,7-trimethyl-2,5,6,7-tetrahydro-[1,4]oxazepin-3-ylamine], the IC50 in assay [1] is 1.59 µM; in assay [2], 1.33 µM.

For `CC1(C)OCC(N)=N[C@](C)(c2cc(-c3cccc(C#N)c3)ccc2F)C1(F)F` [Example 14, 3′-((R)-3-Amino-6,6-difluoro-5,7,7-trimethyl-2,5,6,7-tetrahydro-[1,4]oxazepin-5-yl)-4′-fluoro-biphenyl-3-carbonitrile], the IC50 in assay [1] stood at 0.186 µM; in assay [2], 0.279 µM.
